According to patent US7005124B2, “Dendritic-antineoplastic drug delivery system” (priority 1997, dated 2006):
Where two headings read alike, the source gives them in different places.

Columns and labels:
B16F10 [1] = assay: Cell cytotoxicity of dendrimer-platinate, MTT; assay type: cell-based, murine; settings: Pt-equiv.
Method: (§1) All cellular growth and cytotoxic incubations were carried out in a cell incubator at 37° C. and 5% CO2 atmosphere.
(§2) Cell density was assessed using an improved neurenbrow hemocytometer (Sigma). The cells were washed with PBS twice and fresh RPMI media (supplemented with FCS) added, the cells were then seeded in a microtitre plate. The cells were left for 24 hours to recover and re-adhere. If cells were in a suspension they were spun at 1000×g and resuspended in fresh media.
(§3) Some cells were left in media only to act as cellular controls. The cells were left in the incubator for 72 hours, and checked occasionally for yeast or bacterial contamination. Five hours prior to the incubation time end point, at 67 hours, 20 μl of MTT was added and the cells left for the final 5 hours. Then cellular media was removed and 100 μl of optical grade DMSO (Sigma) was added and the MTT crystals dissolved.

CCRF-CEM = assay: Cell cytotoxicity of dendrimer-platinate, MTT; assay type: cell-based, human; settings: Pt-equiv.
Method: as §1, §2, §3

Cor L23 = assay: Cell cytotoxicity of dendrimer-platinate, MTT; assay type: cell-based, human; settings: Pt-equiv.
Method: as §1, §2, §3

B16F10 [2] = assay: Activity against B16F10 I.P., I.P. injection; assay type: in vivo, C57 mice; settings: dose 5 Pt-equiv mg/Kg, day 1
Method: (§4) Alternatively drug was administered I.V. to mice bearing S.C. implanted B16F10 when the tumor reached palpable size (50–100 mm^2). Animal weight, tumor size and animal survival were monitored (UK guidelines for animal experiments involving neoplasia were followed.)
(§5) Li 210 or B16F10 cells were injected at a cell density into a mouse (DBA2 or C57 respectively, 25 g) at a cell density of 1×10^5 (0.9% saline solution) into the intraperitoneal (I.P. 100 μl) cavity. […] The mouse body weight and general toxicity was also monitored according to UK guidelines in the use of animals used in neoplasia studies. At the end point the gross morphology of the organs was noted.

L1210 = L1210 ip
Method: as §4, §5

N.N.[Cl][Pt][Cl] [Cisplatin, cis-diamminedichloroplatinum]
IC50 Values (B16F10 [1]): 9 µg/mL | IC50 Values (CCRF-CEM): 5 µg/mL | IC50 Values (Cor L23): 1 µg/mL | T/C (B16F10 [2]): 89 | T/C (L1210; dose 2 Pt-equiv mg/Kg I.P. days 1, 2, 3): 171 | T/C (L1210; dose 3 Pt-equiv mg/Kg I.P. days 1, 2, 3): 64
